Values quoted from earlier work in US20250270235A1, “COMPLEX OF GADOLINIUM AND A CHELATING LIGAND DERIVED OF A DIASTEREOISOMERICALLY ENRICHED PCTA AND SYNTHESIS METHOD” (GUERBET, priority 2019, published 2025).

Experiments:
[1] = comparative, same conditions (pH 1.2, 37° C.); cited from earlier work
[2] = as described in WO 2014/174120; comparative; cited from earlier work

| Structure (SMILES) | kinetic inertia [1] | kinetic inertia (dissociation, in words) [1] | also measured |
| --- | --- | --- | --- |
| O=C([O-])CN1CCN(CC(=O)[O-])CCN([C@H](CO)[C@H](O)CO)CCN(CC(=O)[O-])CC1.[Gd+3] (racemic) [gadobutrol] | 18 h | – | – |
| O=C([O-])CN1CCN(CC(=O)[O-])CCN(CC(=O)O)CCN(CC(=O)[O-])CC1.[Gd+3] [DOTA-Gd, gadolinium complex of 1,4,7,10-tetraazacyclododecane-N,N′,N″,N′″-tetraacetic acid] | – | – | log (Ktherm), stability constant [2]: 25.6 |
| CNC(=O)CN(CCN(CCN(CC(=O)[O-])CC(=O)NC)CC(=O)[O-])CC(=O)[O-].[Gd+3] [gadodiamide] | – | dissociate instantaneously | – |
| O=C([O-])CN(CCN(CC(=O)[O-])CC(=O)[O-])CCN(CC(=O)[O-])CC(=O)[O-].[Gd+3] [gadopentetate] | – | dissociate instantaneously | – |
| CNC[C@H](O)[C@@H](O)[C@H](O)[C@H](O)CO.O=C([O-])CN1CCN(CC(=O)[O-])CCN(CC(=O)O)CCN(CC(=O)[O-])CC1.[Gd+3] [gadoterate] | 96 h | – | – |
